Some results are limits rather than exact numbers.

In this assay the target is skeletal myofibrils (myosin ATPase activity). In words: Skeletal Myofibril ATPase Assay. The assay is classed as biochemical. The note with it: PK-LDH coupled, absorbance at 340 nm. In a few lines: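 Skeletal myofibril ATPase measured by PK-LDH-coupled NADH depletion at 340 nm, read every 1.5–2 min for 1 h; pCa buffer with PIPES/CaCl2/EGTA, pH 7.0. Rate taken as max–min absorbance, normalised to 1% DMSO vehicle (100%) and no change (0%); IC50 from four-parameter fit, bottom ≥0.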
Take `O=c1ccc(-c2ccc(OC(F)F)cc2)nn1Cc1ccc(Cl)cn1` [Compound 211, 2-((5-chloropyridin-2-yl)methyl)-6-(4-(difluoromethoxy)phenyl)-pyridazin-3(2H)-one]: the IC50 (as a rule, the concentration needed to halve the response being measured) lay in the range of 10 to 100 µM.
In turn, `O=c1ccc(-c2ccc(OC(F)F)cc2)nn1Cc1nnc(-c2ccccc2)o1` [Compound 212, 6-(4-(difluoromethoxy)phenyl)-2-((5-phenyl-1,3,4-oxadiazol-2-yl)methyl)pyridazin-3(2H)-one] returned an IC50 of 10 to 100 µM.
On to `CCc1noc(Cn2nc(-c3ccc(OC(F)F)cc3)ccc2=O)n1` [Compound 213, 6-(4-(difluoromethoxy)phenyl)-2-((3-ethyl-1,2,4-oxadiazol-5-yl)methyl)pyridazin-3(2H)-one], for which the IC50 was 10 to 100 µM.
`O=c1ccc(-c2ccc(OC(F)F)cc2)nn1Cc1nc(C2CC2)co1` [Compound 214, 2-((4-cyclopropyloxazol-2-yl)methyl)-6-(4-(difluoromethoxy)phenyl)-pyridazin-3(2H)-one] had an IC50 of 10 to 100 µM.
`O=c1ccc(-c2ccc(OC(F)F)cc2)nn1Cc1nnc(C(F)(F)F)o1` [Compound 215, 6-(4-(difluoromethoxy)phenyl)-2-((5-(trifluoromethyl)-1,3,4-oxadiazol-2-yl)methyl)pyridazin-3(2H)-one] registered an IC50 of 10 to 100 µM.
For the compound `Cc1noc(Cn2nc(-c3ccc(OC(F)F)cc3)ccc2=O)n1` [Compound 216, 6-(4-(difluoromethoxy)phenyl)-2-((3-methyl-1,2,4-oxadiazol-5-yl)methyl)pyridazin-3(2H)-one], the IC50 fell in the range of 10 to 100 µM.
Compound `O=c1ccc(-c2ccc(OC(F)F)cc2)nn1Cc1nnc(C2CC2)s1` [Compound 217, 2-((5-cyclopropyl-1,3,4-thiadiazol-2-yl)methyl)-6-(4-(difluoromethoxy)phenyl)-pyridazin-3(2H)-one] displayed an IC50 of 10 to 100 µM.
The compound `Cc1coc(Cn2nc(-c3ccc(OC(F)F)cc3)ccc2=O)n1` [Compound 218, 6-(4-(difluoromethoxy)phenyl)-2-((4-methyloxazol-2-yl)methyl)pyridazin-3(2H)-one] showed an IC50 of 10 to 100 µM.
The compound `O=c1ccc(-c2ccc(OC(F)F)cc2)nn1Cc1nnc(C2CC2)o1` [Compound 219] gave a 50% inhibitory concentration (IC50) of 10 to 100 µM.
Then `O=c1ccc(-c2ccc(OC(F)F)cc2)nn1Cc1cncnc1` [Compound 220, 6-(4-(difluoromethoxy)phenyl)-2-(pyrimidin-5-ylmethyl)pyridazin-3(2H)-one], with 10 to 100 µM; and `Cc1nnc(Cn2nc(-c3ccc(OC(F)F)cc3)ccc2=O)o1` [Compound 222, 6-(4-(difluoromethoxy)phenyl)-2-((5-methyl-1,3,4-oxadiazol-2-yl)methyl)pyridazin-3(2H)-one], with 10 to 100 µM; and `Cc1nnc(Cn2nc(-c3ccc(OC(F)F)cc3)ccc2=O)s1` [Compound 223, 6-(4-(difluoromethoxy)phenyl)-2-((5-methyl-1,3,4-thiadiazol-2-yl)methyl)pyridazin-3(2H)-one], with 10 to 100 µM.
With `Cc1cnc(Cn2nc(-c3ccc(OC(F)F)cc3)ccc2=O)[nH]1` [Compound 224, 6-(4-(difluoromethoxy)phenyl)-2-((5-methyl-1H-imidazol-2-yl)methyl)pyridazin-3(2H)-one], the IC50 is over 100 µM.
`O=c1ccc(-c2ccc(OC(F)F)cc2)nn1Cc1ccncn1` [Compound 225, 6-(4-(difluoromethoxy)phenyl)-2-(pyrimidin-4-ylmethyl)pyridazin-3(2H)-one] gave a 50% inhibitory concentration (IC50) of over 100 µM.
Consider `O=c1ccc(-c2ccc(OC(F)F)cc2)nn1Cc1nccn1CC(F)(F)F` [Compound 226, 6-(4-(difluoromethoxy)phenyl)-2-((1-(2,2,2-trifluoroethyl)-1H-imidazol-2-yl)methyl)pyridazin-3(2H)-one], for which the half-maximal inhibitory concentration (IC50) is over 100 µM.
On to `Cc1nnc(Cn2nc(-c3ccc(OC(F)F)cc3)ccc2=O)[nH]1` [Compound 227, 6-(4-(difluoromethoxy)phenyl)-2-((5-methyl-4H-1,2,4-triazol-3-yl)methyl)pyridazin-3(2H)-one], for which the IC50 was over 100 µM.
The compound `O=c1ccc(-c2ccc(OC(F)F)cc2)nn1Cc1nnc(C2CC2)[nH]1` [Compound 228, 2-((5-cyclopropyl-4H-1,2,4-triazol-3-yl)methyl)-6-(4-(difluoromethoxy)phenyl)-pyridazin-3(2H)-one] registered an IC50 of over 100 µM.
`O=c1ccc(-c2ccc(OC(F)F)cc2)nn1Cc1nnc(C(F)(F)F)s1` [Compound 229, 6-(4-(difluoromethoxy)phenyl)-2-((5-(trifluoromethyl)-1,3,4-thiadiazol-2-yl)methyl)pyridazin-3(2H)-one] showed an IC50 of over 100 µM.
As for `O=c1ccc(-c2ccc(OC(F)F)cc2)nn1Cc1nc2ccccc2[nH]1` [Compound 230, 2-((1H-benzo[d]imidazol-2-yl)methyl)-6-(4-(difluoromethoxy)phenyl)-pyridazin-3(2H)-one], the figure is over 100 µM; as for `O=c1ccc(-c2ccc(OC(F)F)cc2)nn1Cc1ncccn1` [Compound 232, 6-(4-(difluoromethoxy)phenyl)-2-(pyrimidin-2-ylmethyl)pyridazin-3(2H)-one], over 100 µM.
Then `O=c1[nH]nc(Cn2nc(-c3ccc(OC(F)F)cc3)ccc2=O)o1` [Compound 234, 5-((3-(4-(difluoromethoxy)phenyl)-6-oxopyridazin-1(6H)-yl)methyl)-1,3,4-oxadiazol-2(3H)-one], with over 100 µM.
As for `Nc1nnc(Cn2nc(-c3ccc(OC(F)F)cc3)ccc2=O)o1` [Compound 235, 2-((5-amino-1,3,4-oxadiazol-2-yl)methyl)-6-(4-(difluoromethoxy)phenyl)-pyridazin-3(2H)-one], the 50% inhibitory concentration (IC50) was over 100 µM.
`O=c1ccc(-c2ccc(OC(F)F)cc2)nn1Cc1nnc(C(F)(F)F)[nH]1` [Compound 236, 6-(4-(difluoromethoxy)phenyl)-2-((5-(trifluoromethyl)-4H-1,2,4-triazol-3-yl)methyl)pyridazin-3(2H)-one] returned a 50% inhibitory concentration (IC50) of over 100 µM.
As to `O=c1ccc(-c2ccc(OC(F)F)cc2)nn1Cc1nc(-c2ccccc2)co1` [Compound 237, 6-(4-(difluoromethoxy)phenyl)-2-((4-phenyloxazol-2-yl)methyl)pyridazin-3(2H)-one], the IC50 was in the range of 10 to 100 µM.
Compound `O=c1ccc(-c2ccc(OCC(F)(F)F)cc2)nn1Cc1cncc(F)c1` [Compound 238, 2-((5-fluoropyridin-3-yl)methyl)-6-(4-(2,2,2-trifluoroethoxy)phenyl) pyridazin-3(2H)-one] had an IC50 of under 10 µM.
`Cc1noc(Cn2nc(-c3ccc4c(c3)OCCCO4)ccc2=O)n1` [Compound 301, 6-(3,4-dihydro-2H-benzo[b][1,4]dioxepin-7-yl)-2-((3-methyl-1,2,4-oxadiazol-5-yl)methyl)pyridazin-3(2H)-one] gave an IC50 of over 100 µM.
Consider `COC(=O)c1ccc(Cn2nc(-c3ccc(SC)cc3)ccc2=O)o1` [Compound 302, methyl 5-((3-(4-(methylthio)phenyl)-6-oxopyridazin-1(6H)-yl)methyl)furan-2-carboxylate], for which the half-maximal inhibitory concentration (IC50) fell in the range of 10 to 100 µM.
`CCOc1ccc(-c2ccc(=O)n(Cc3nc(-c4ccccn4)no3)n2)cc1` [Compound 304, 6-(4-ethoxyphenyl)-2-((3-(pyridin-2-yl)-1,2,4-oxadiazol-5-yl)methyl)pyridazin-3(2H)-one] came in with an IC50 of under 10 µM.
For `COc1ccc(-c2ccc(=O)n(Cc3nc(-c4ccc(OC)cc4)no3)n2)cc1` [Compound 305, 6-(4-methoxyphenyl)-2-((3-(4-methoxyphenyl)-1,2,4-oxadiazol-5 yl)methyl)pyridazin-3(2H)-one], the IC50 was under 10 µM.
On to `COc1ccc(-c2ccc(=O)n(Cc3nc(-c4ccccn4)no3)n2)cc1` [Compound 306, 6-(4-methoxyphenyl)-2-((3-(pyridin-2-yl)-1,2,4-oxadiazol-5-yl)methyl)pyridazin-3(2H)-one], for which the IC50 was 10 to 100 µM.
Regarding `COc1ccc(-c2ccc(=O)n(Cc3cc(=O)n4ccccc4n3)n2)cc1` [Compound 307, 2-((3-(4-methoxyphenyl)-6-oxopyridazin-1(6H)-yl)methyl)-4H-pyrido[1.2-a]pyrimidin-4-one], the concentration for half-maximal inhibition (IC50) is 10 to 100 µM.
On to `CCOc1ccc(-c2ccc(=O)n(Cc3nc(-c4cccs4)no3)n2)cc1` [Compound 308, 6-(4-ethoxyphenyl)-2-((3-(thiophen-2-yl)-1,2,4-oxadiazol-5-yl)methyl)pyridazin-3(2H)-one], for which the IC50 was under 10 µM.
Then `COc1ccc(-c2ccc(=O)n(Cc3nc(-c4ccccc4)no3)n2)cc1` [Compound 309, 6-(4-methoxyphenyl)-2-((3-phenyl-1,2,4-oxadiazol-5-yl)methyl)pyridazin-3(2H)-one], with under 10 µM; and `COc1ccc(-c2ccc(=O)n(Cc3nc(-c4ccc(OC)cc4)no3)n2)cc1` [Compound 310, 6-(4-methoxyphenyl)-2-((3-(4-methoxyphenyl)-1,2,4-oxadiazol-5-yl)methyl)pyridazin-3(2H)-one], with under 10 µM.
The compound `Cc1ccc(-c2ccc(=O)n(Cc3cc(=O)n4ccccc4n3)n2)cc1` [Compound 311, 2-((6-oxo-3-(p-tolyl)pyridazin-1(6H)-yl)methyl)-4H-pyrido[1,2-a]pyrimidin-4-one] registered an IC50 of 10 to 100 µM.
Then `Cc1ccc(-c2ccc(=O)n(Cc3nc(-c4ccccc4C)no3)n2)cc1` [Compound 312, 6-(p-tolyl)-2-((3-(o-tolyl)-1,2,4-oxadiaxol-5-yl)methyl)pyridazin-3(2H)-one], with under 10 µM; and `Cc1ccc(-c2noc(Cn3nc(-c4ccc(Cl)cc4)ccc3=O)n2)cc1` [Compound 313, 6-(4-chlorophenyl)-2-((3-(p-tolyl)-1,2,4-oxadiazol-5-yl)methyl)pyridazin-3(2H)-one], with 10 to 100 µM.
On to `Cc1ccc(-c2ccc(=O)n(Cc3nc(-c4cccc(Cl)c4)no3)n2)cc1` [Compound 314, 2-((3-(3-chlorophenyl)-1,2,4-oxadiazol-5-yl)methyl)-6-(p-tolyl)pyridazin-3(2H)-one], for which the IC50 was over 100 µM.

Source of the values: patent publication US11873290B2, “Pyridazinone compounds and uses thereof” (Edgewise Therapeutics, Inc., priority 2018, dated 2024).
